Where a name gives a salt, the structure may show the parent alone. Read-outs that look alike come from different tables or passages of the source.
Target: T1, His6-AspH315–758 (human aspartate/asparagine-β-hydroxylase, AspH) (Homo sapiens, UniProt Q12797)
T1 construct: N-Terminally His6-tagged human AspH315–758 (His6-AspH315–758) was produced in E. coli BL21 (DE3) cells; made in house; host or cells: E. coli BL21 (DE3), pET-28a(+) vector
T1 sequence (Q12797 315-758): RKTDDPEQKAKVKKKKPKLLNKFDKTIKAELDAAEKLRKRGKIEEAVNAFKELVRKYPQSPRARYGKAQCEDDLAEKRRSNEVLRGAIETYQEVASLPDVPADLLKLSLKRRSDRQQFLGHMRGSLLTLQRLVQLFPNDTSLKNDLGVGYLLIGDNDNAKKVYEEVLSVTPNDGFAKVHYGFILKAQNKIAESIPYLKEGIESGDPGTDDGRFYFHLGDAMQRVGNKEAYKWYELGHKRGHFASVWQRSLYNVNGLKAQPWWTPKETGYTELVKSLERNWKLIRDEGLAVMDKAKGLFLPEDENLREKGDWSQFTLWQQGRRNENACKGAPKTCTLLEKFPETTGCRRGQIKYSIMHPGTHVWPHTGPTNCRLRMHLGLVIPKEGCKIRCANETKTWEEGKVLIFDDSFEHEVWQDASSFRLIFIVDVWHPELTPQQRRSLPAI
Assay: SPE-MS AspH inhibition assay (LOPAC screen at fixed 20 μM and IC50 dose-response), hydroxylation of cyclic peptide hFX-CP101–119
Format: biochemical

[1] = LOPAC compound at fixed 20 uM, plate 1, normalised to DMSO and 2,4-PDCA controls
[2] = plate 5 (Pfitzer), test compounds at fixed 20 μM
[3] = LOPAC Plate 4, compound at 20 uM, substrate conversion
[4] = LOPAC Plate 4, compound at 20 uM, read-out: % inhibition
[5] = plate 5 (Pfitzer), test compounds at fixed 20 μM, mean conversion DMSO 32.88
[6] = LOPAC compound at 20uM, conversion of substrate peptide
[7] = LOPAC compound at fixed 20 uM, substrate conversion, plate 1
[8] = LOPAC compound at 20uM, plate 2, conversion of substrate peptide
[9] = LOPAC compound at 20uM, plate 2, normalised to DMSO and 2,4-PDCA controls
[10] = LOPAC compound at 20uM, plate 2, normalised to DMSO and 2,4-PDCA controls, read-out: Plate 2 (% inhibition)

CC(C)c1c(C(=O)Nc2ccccc2)c(-c2ccccc2)c(-c2ccc(F)cc2)n1CC[C@@H](O)C[C@@H](O)CC(=O)O [Atorvastatin calcium salt trihydrate]
Plate 1 (% inhibition) [1]: 1.55% | Plate 5 (% inhibition) [2]: 17.18%

NCCS(=O)(=O)O [Taurine]
% conversion [3]: 39.69% | inhibition at 20 µM [4]: -9.43%

O=C(O)CCCCC1CCSS1 (racemic) [(±)-alpha-Lipoic Acid]
% inhibition (LOPAC Plate 4, compound at 20 uM): 5.35% | % conversion [3]: 34.64%

COc1ccc2c(c1)CCC(c1ccccc1)=C2c1ccc(OCCN2CCCC2)cc1 [Nafoxidine]
Plate 5 (% inhibition) [2]: -70.28% | Plate 5 (% conversion) [5]: 60.23%

CN1CCc2cccc(Cl)c2CC1 [SKF 86466]
% conversion: 40.52% | inhibition at 20 µM: -11.9%

CCCN(CCC)CCc1ccc(O)c(O)c1 [Dipropyldopamine hydrobromide]
Plate 2 (% conversion): 10.27% | inhibition at 20 µM (read-out: Plate 2 (% inhibition)): 76.7%

CCCCCCC(=O)OC1CC(C)(C)NC(C)(C)C1.Cl [TMPH hydrochloride]
Plate 3 (% conversion) [6]: 40.82%

CC1=C(C)C(=O)C(CCCCC#CCCCC#CCO)=C(C)C1=O [AA-861]
Plate 1 (% inhibition) [1]: -23.70% | Plate 1 (% conversion) [7]: 43.83%

CC(N)Cc1cccc(C(F)(F)F)c1.Cl (single isomer, unassigned; (+)) [(+)-Norfenfluramine hydrochloride]
% conversion: 26.61%

COc1cc(SC)ccc1C(=O)N1CCC(Cc2ccccc2)CC1 [JX401]
Plate 2 (% conversion) [8]: 45.70% | Plate 2 (% inhibition) [9]: -29.09%

O=C(O)C1CCCNC1 (racemic) [(±)-Nipecotic acid]
Plate 1 (% conversion): 30.40% | Plate 1 (% inhibition): 16.29%

NC(=O)c1noc([C@H](CCCC2CCCCC2)CC(=O)NO)n1 [UK-383367]
Plate 5 (% inhibition) [2]: 50.83% | Plate 5 (% conversion) [5]: 19.02%

CCCCS(=N)(=O)CCC(N)C(=O)O (racemic) [DL-Buthionine-[S,R]-sulfoximine]
Plate 1 (% conversion): 34.26% | Plate 1 (% inhibition): 4.80%

CCN1CCC[C@H]1CNC(=O)c1cc(S(N)(=O)=O)ccc1OC [(-)-Sulpiride]
% conversion [3]: 32.10%

Ro 61-8048
Plate 3 (% conversion) [6]: 30.86%

C[C@@]1(C2CCCC2)Cc2cc(OCC(=O)O)c(Cl)c(Cl)c2C1=O [R(+)-IAA-94]
Plate 3 (% conversion) [6]: 30.54%

Cl.Cn1ccc2cc(NC(=O)Nc3cccnc3)ccc21 [SB 200646 hydrochloride]
Plate 1 (% inhibition) [1]: -6.42% | Plate 1 (% conversion) [7]: 38.03%

COc1ccccc1N1CCN(CCCNc2cc(=O)n(C)c(=O)n2C)CC1 [Urapidil hydrochloride]
% conversion [3]: 27.32%

CN[C@@H]1CC[C@@H](c2ccc(Br)cc2)c2ccccc21.Cl [CP-53631]
Plate 5 (% conversion): 37.76% | Plate 5 (% inhibition): -4.23%

CCC1(c2ccccc2)C(=O)NCNC1=O [Primidone]
% conversion [3]: 31.08%

CN(C)CCc1c[nH]c2ccc(Cn3cncn3)cc12.O=C(O)c1ccccc1 [Rizatriptan benzoate salt]
Plate 3 (% conversion) [6]: 37.82%

CC(/C=C/c1cccc(Oc2ccc(F)cc2)c1)N(O)C(N)=O (centres unmarked) [BWB70C]
Plate 1 (% inhibition) [1]: -3.19% | Plate 1 (% conversion) [7]: 36.94%

CCCN1CCc2cccc3c2[C@H]1Cc1ccc(O)c(O)c1-3.Cl [R(-)-Propylnorapomorphine hydrochloride]
Plate 2 (% conversion): 7.83% | Plate 2 (% inhibition) (20 µM): 84.00%

Cc1cc(CCC[C@H](CC(=O)NO)C(=O)N[C@H](C(=O)N[C@H](C)c2ccccc2)C(C)(C)C)ccc1-c1ccccc1 [UK-356618]
Plate 5 (% inhibition) [2]: 84.86% | Plate 5 (% conversion) [5]: 7.43%

Nc1nc(Cl)nc2c1ncn2[C@@H]1O[C@H](CO)[C@@H](O)[C@H]1O [2-Chloroadenosine]
Plate 1 (% inhibition) [1]: -4.87% | Plate 1 (% conversion) [7]: 37.51%

Cc1cn([C@H]2C[C@H](N=[N+]=[N-])[C@@H](CO)O2)c(=O)[nH]c1=O [3-Azido-3-deoxythymidine]
Plate 1 (% inhibition) [1]: -7.24% | Plate 1 (% conversion) [7]: 38.30%

CC(C)c1ccc2c(c1)c(SC(C)(C)C)c(CC(C)(C)C(=O)O)n2Cc1ccc(Cl)cc1 [MK-886, reference compound]
IC50 (50 nM His6-AspH315–758, 1.0 μM hFX-CP101–119, 3 μM 2OG, 2 μM Fe(II), 50 mM HEPES pH 7.5, 20 °C, mean ± SD, n = 2 (2,4-PDCA n = 10), read-out: IC50): 8.58 ± 1.93 µM | Inhibition at 20 µM [%] (AspH activity, fixed compound concentration 20 μM, initial LOPAC screen, 0.5%v/v DMSO): 99.9%

C[C@@H]1C(=O)NC2=Nc3cccc(Cl)c3CN21 [Quazinone]
% conversion [3]: 40.20% | inhibition at 20 µM [4]: -10.9%

Cc1cnc(C(=O)NCCc2ccc(S(=O)(=O)NC(=O)NC3CCCCC3)cc2)cn1 [Glipizide]
inhibition at 20 µM [10]: -8.88%

COc1ccc(CCN(C)CCCC(C#N)(c2ccc(OC)c(OC)c2)C(C)C)cc1OC.Cl (racemic) [(±)-Verapamil hydrochloride]
% conversion: 42.64% | % inhibition (20 µM): -18.08%

Cc1nc2ccccn2c(=O)c1CCN1CCC(C(=O)c2ccc(F)cc2)CC1 [Pirenperone]
% conversion [3]: 26.88%

CC1=C(CC(=O)O)c2cc(F)ccc2/C1=C\c1ccc([S+](C)[O-])cc1 (centres unmarked) [Sulindac]
% conversion [3]: 35.56% | inhibition at 20 µM [4]: 2.67%

CCCCN(CCCC)CC(O)c1cc(Cl)cc2c1-c1ccc(Cl)cc1/C2=C/c1ccc(Cl)cc1 (centres unmarked) [Lumefantrine]
Plate 1 (% inhibition) [1]: -1.89% | Plate 1 (% conversion) [7]: 36.51%

CN(C)CCOC(=O)COc1ccc(Cl)cc1 [Centrophenoxine hydrochloride]
Plate 1 (% conversion): 36.66% | Plate 1 (% inhibition): -2.35%

Cl.OCc1c[nH]cn1 [4-Imidazolemethanol hydrochloride]
Plate 2 (% conversion): 36.75% | Plate 2 (% inhibition) (20 µM): -2.37%

CC(C)NNC(=O)c1ccncc1.O=P(O)(O)O [Iproniazid phosphate]
Plate 3 (% conversion) [6]: 39.38%

CNC(=O)[C@H]1O[C@@H](n2cnc3c(NCc4ccc(N)cc4)ncnc32)[C@H](O)[C@@H]1O [AB-MECA]
Plate 1 (% inhibition) [1]: -6.25% | Plate 1 (% conversion) [7]: 37.97%

Br.CCCN(CCC)C1CCc2ccc(O)cc2C1 (racemic) [(±)-7-Hydroxy-DPAT hydrobromide]
Plate 2 (% conversion) [8]: 37.82% | Plate 2 (% inhibition) [9]: -5.57%

NC1(C(=O)O)CCc2cc(C(=O)O)ccc21 (centres unmarked) [AIDA]
Plate 1 (% inhibition) [1]: 3.11% | Plate 1 (% conversion) [7]: 34.83%

N=C(N)N/N=C/c1c(Cl)cccc1Cl [Guanabenz acetate]
Plate 2 (% conversion) [8]: 34.67% | inhibition at 20 µM [10]: 3.85%

COc1ccc(-c2cc3nccn3c(Nc3ncccc3C(N)=O)n2)cc1OC.Cl.O [BAY 61-3606 hydrochloride hydrate]
% conversion [3]: 33.04%

Cn1cnc2c(NCc3ccccc3)nc(NCCO)nc21 [Olomoucine]
Plate 3 (% conversion) [6]: 37.63%
